Patent EP0014295B1, “Benzodioxan derivatives, process for their preparation and their therapeutical applications” (Bouchara, Emile Dr., priority 1979, dated 1980)

What was measured:
[1] = test system: pression artérielle de l'animal normotendu anesthésié; experiment: Effect on arterial pressure of the anaesthetised normotensive animal, intravenous (rat); type: in vivo; conditions: voie intraveineuse
Description: (§1) a) Effet sur la pression artérielle de l'animal normotendu anesthésié.
(§2) L'étude a été conduite chez le rat, le lapin et le chien. Le composé de l'exemple 2 a été administré par voie intraveineuse. Les différents paramètres enregistrés ont été les pressions artérielles systoliques, diastoliques et moyennes, la fréquence cardiaque, la vitesse d'éjection systolique (dp/dt). La force de contraction cardiaque, les débits artériel et veineux ont été enregistrés chez le chien uniquement.

[2] = test system: pression artérielle de l'animal normotendu anesthésié; experiment: Effect on arterial pressure of the anaesthetised normotensive animal, intravenous (rabbit); type: in vivo; conditions: lapin normotendu anesthésié, voie intraveineuse, dès la dose de 0,250 mg/kg; proportionnelle aux doses en intensité et en durée
Description: as §1, §2

[3] = test system: pression artérielle de l'animal normotendu anesthésié; experiment: Effect on arterial pressure of the anaesthetised normotensive animal, intravenous (dog); type: in vivo; conditions: chien normotendu anesthésié, voie intraveineuse
Description: as §1, §2

[4] = test system: pression artérielle de l'animal hypertendu non anesthésié; experiment: Effect on arterial pressure of the non-anaesthetised hypertensive animal, oral (rat); type: in vivo
Description: (§3) b) Effet sur la pression artérielle de l'animal hypertendu non anesthésié.
(§4) L'étude a été conduite chez le rat et chez le chien. On a utilisé, d'une part, des animaux (rats) présentant une hypertension expérimentale induite par ligature de l'aorte abdominale entre les deux artères rénales et, d'autre part, des animaux (rats et chiens) porteurs d'hypertension spontanée.
(§5) Le composé de l'exemple 2 a été administré par voie orale soit en prise unique pour connaître la cinétique d'action du produit, soit en traitement prolongé.

[5] = test system: pression artérielle de l'animal hypertendu non anesthésié; experiment: Effect on arterial pressure of the non-anaesthetised hypertensive animal, oral (dog); type: in vivo, chien
Description: as §3, §4, §5

système nerveux central = experiment: Effects on the central nervous system, oral; type: in vivo; conditions: souris, voie orale, doses provoquant une activité antihypertensive chez le rat
Description: Ces effets centraux sont peut-être directement liés à l'action hypotensive

Acute toxicity, oral = conditions: mouse, in vivo, souris, per os, read-out: Dose léthale 50 approchée mg/kg per os
Description: La toxicité a été déterminée chez la souris par voie orale. Les résultats sont donnés dans le tableau III.

rats = experiment: Chronic toxicity, mixed with food for 45 days; type: in vivo; conditions: 75 mg/kg/jour, mélangé à la nourriture, 45 jours
Description: Le composé de l'exemple 2, mélangé à la nourriture, a été administré 45 jours de suite à des rats.

[6] = dès la dose de 0,250 mg/kg, proportionnelle aux doses en intensité et en durée

O=C(c1ccc(F)cc1)C1CCN(CC2COc3ccccc3O2)CC1 (centres unmarked) [Exemple 2, Chlorhydratede la 1-[(2,3-dihydro-4H-1,4-benzodioxin)-2-ylméthyl]-4-(4-fluorobenzoyl) pipéridine]
fréquence cardiaque [1]: bradycardie | pression artérielle [1, 6]: chute tensionnelle systo- diastolique très rapide | pression artérielle [2]: chute tensionnelle systo- diastolique très rapide | pression artérielle [3, 6]: chute tensionnelle systo- diastolique très rapide | dp/dt (vitesse d'éjection systolique) ([3]; parallèlement à l'hypotension): augmentation | débits artériel et veineux ([3]; parallèlement à l'hypotension): augmentation | force de contraction cardiaque ([3]; parallèlement à l'hypotension): augmentation | Diminution de la pression artérielle en mm de mercure Chez le rat ([4]; 10 mg/kg P.O., 10mn): 39±11 mm de mercure | Diminution de la pression artérielle en mm de mercure Chez le rat ([4]; 10 mg/kg P.O., 30mn): 45±10 mm de mercure | Diminution de la pression artérielle en mm de mercure Chez le rat ([4]; 10 mg/kg P.O., 1h): 33±9 mm de mercure | Diminution de la pression artérielle en mm de mercure Chez le rat ([4]; 10 mg/kg P.O., 2h): 20±6 mm de mercure | Diminution de la pression artérielle en mm de mercure Chez le rat ([4]; 10 mg/kg P.O., 6h): 6±3 mm de mercure | Diminution de la pression artérielle en mm de mercure Chez le rat ([4]; 20 mg/kg P.O., 10mn): 66±8 mm de mercure | Diminution de la pression artérielle en mm de mercure Chez le rat ([4]; 20 mg/kg P.O., 30mn): 63±6 mm de mercure | Diminution de la pression artérielle en mm de mercure Chez le rat ([4]; 20 mg/kg P.O., 1h): 49±7 mm de mercure | Diminution de la pression artérielle en mm de mercure Chez le rat ([4]; 20 mg/kg P.O., 2h): 37±7 mm de mercure | Diminution de la pression artérielle en mm de mercure Chez le rat ([4]; 20 mg/kg P.O., 6h): 29±6 mm de mercure | Diminution de la pression artérielle en mm de mercure Chez le rat ([4]; 20 mg/kg P.O., 12h): 17±7 mm de mercure | Diminution de la pression artérielle en mm de mercure Chez le rat ([4]; 20 mg/kg P.O., 18h): 8±4 mm de mercure | Diminution de la pression artérielle en mm de mercure Chez le rat ([4]; 20 mg/kg P.O., 24h): 3±3 mm de mercure | Diminution de la pression artérielle en mm de mercure Chez le rat ([4]; 50 mg/kg P.O., 10mn): 68±6 mm de mercure | Diminution de la pression artérielle en mm de mercure Chez le rat ([4]; 50 mg/kg P.O., 30mn): 68±5 mm de mercure | Diminution de la pression artérielle en mm de mercure Chez le rat ([4]; 50 mg/kg P.O., 1h): 52±6 mm de mercure | Diminution de la pression artérielle en mm de mercure Chez le rat ([4]; 50 mg/kg P.O., 2h): 38±7 mm de mercure | Diminution de la pression artérielle en mm de mercure Chez le rat ([4]; 50 mg/kg P.O., 6h): 32±8 mm de mercure | Diminution de la pression artérielle en mm de mercure Chez le rat ([4]; 50 mg/kg P.O., 12h): 16±7 mm de mercure | Diminution de la pression artérielle en mm de mercure Chez le rat ([4]; 50 mg/kg P.O., 18h): 8±5 mm de mercure | Diminution de la pression artérielle en mm de mercure Chez le rat ([4]; 50 mg/kg P.O., 24h): 5±5 mm de mercure | action antihypertensive ([4]; rat hypertendu, voie orale, prise unique ou traitement prolongé, augmentant avec les doses jusqu'à un plafond): action antihypertensive nette, prolongée | Diminution de la pression artérielle en mm de mercure Chez le chien ([5]; 10 mg/kg P.O., 20mn): 10±4 mm de mercure | Diminution de la pression artérielle en mm de mercure Chez le chien ([5]; 10 mg/kg P.O., 40mn): 10±4 mm de mercure | Diminution de la pression artérielle en mm de mercure Chez le chien ([5]; 10 mg/kg P.O., 1h): 18±3 mm de mercure | Diminution de la pression artérielle en mm de mercure Chez le chien ([5]; 10 mg/kg P.O., 2h): 11±1 mm de mercure | Diminution de la pression artérielle en mm de mercure Chez le chien ([5]; 10 mg/kg P.O., 5h): 4±3 mm de mercure | Diminution de la pression artérielle en mm de mercure Chez le chien ([5]; 10 mg/kg P.O., 7h): 1±2 mm de mercure | Diminution de la pression artérielle en mm de mercure Chez le chien ([5]; 10 mg/kg P.O., 24h): 0±1 mm de mercure | Diminution de la pression artérielle en mm de mercure Chez le chien ([5]; 20 mg/kg P.O., 20mn): 12±4 mm de mercure | Diminution de la pression artérielle en mm de mercure Chez le chien ([5]; 20 mg/kg P.O., 40mn): 26±3 mm de mercure | Diminution de la pression artérielle en mm de mercure Chez le chien ([5]; 20 mg/kg P.O., 1h): 38±2 mm de mercure | Diminution de la pression artérielle en mm de mercure Chez le chien ([5]; 20 mg/kg P.O., 2h): 37±3 mm de mercure | Diminution de la pression artérielle en mm de mercure Chez le chien ([5]; 20 mg/kg P.O., 5h): 18±7 mm de mercure | Diminution de la pression artérielle en mm de mercure Chez le chien ([5]; 20 mg/kg P.O., 7h): 8±1 mm de mercure | Diminution de la pression artérielle en mm de mercure Chez le chien ([5]; 20 mg/kg P.O., 24h): 2±3 mm de mercure | Diminution de la pression artérielle en mm de mercure Chez le chien ([5]; 50 mg/kg P.O., 20mn): 21±9 mm de mercure | Diminution de la pression artérielle en mm de mercure Chez le chien ([5]; 50 mg/kg P.O., 40mn): 31±6 mm de mercure | Diminution de la pression artérielle en mm de mercure Chez le chien ([5]; 50 mg/kg P.O., 1h): 40±8 mm de mercure | Diminution de la pression artérielle en mm de mercure Chez le chien ([5]; 50 mg/kg P.O., 2h): 46±3 mm de mercure | Diminution de la pression artérielle en mm de mercure Chez le chien ([5]; 50 mg/kg P.O., 5h): 28±8 mm de mercure | Diminution de la pression artérielle en mm de mercure Chez le chien ([5]; 50 mg/kg P.O., 7h): 22±6 mm de mercure | Diminution de la pression artérielle en mm de mercure Chez le chien ([5]; 50 mg/kg P.O., 24h): 1±2 mm de mercure | action antihypertensive ([5]; chien hypertendu, voie orale, prise unique ou traitement prolongé, augmentant avec les doses jusqu'à un plafond): action antihypertensive nette, prolongée | effet antihypertenseur après arrêt du traitement ([5]; chien, après arrêt du traitement, retour progressif à la normale): persistance de l'effat antihypertenseur | agressivité (système nerveux central): diminution | sommeil expérimental (système nerveux central): potentialisation | sédation (système nerveux central): sédation générale | LD50 (Acute toxicity, oral): 880 mg/kg | anomalie clinique, hématologique, anatomique (rats): aucune anomalie ni clinique, ni hématologique, ni anatomique | taux des triglycérides (rats): chute nette et isolée

COc1ccc(C(=O)C2CCN(CC3COc4ccccc4O3)CC2)cc1 (centres unmarked) [Exemple 4, Fumaratede la 1-[(2,3-dihydro-4H-1,4-benzodioxin)-2-ylméthyl]-4-(4-méthoxybenzoyl) pipéridine]
LD50 (Acute toxicity, oral): 364 mg/kg

O=C(c1ccc(Cl)cc1)C1CCN(CC2COc3ccccc3O2)CC1 (centres unmarked) [Exemple 6, Chlorhydratede la 1-[(2,3-dihydro-4H-1 ,4-benzodioxine)-2-ylméthyl]-4-(4-chlorobenzoyl) pipéridine]
LD50 (Acute toxicity, oral): 880 mg/kg

O=C(c1ccc(O)cc1)C1CCN(CC2COc3ccccc3O2)CC1 (centres unmarked) [Exemple 7, 1-[(2,3-Dihydro-4H-1,4-benzodioxin)-2-ylméthyl]-4-(4-hydroxy-benzoyl) pipéridine]
LD50 (Acute toxicity, oral): 440 mg/kg

O=C(Oc1ccc(C(=O)C2CCN(CC3COc4ccccc4O3)CC2)cc1)c1cccnc1 (centres unmarked) [Exemple 8, Nicotinatede la 1-[(2,3-dihydro-4H-1,4-benzodioxin)-2-ylméthyl]-4-(4-hydroxybenzoyl) pipéridine]
LD50 (Acute toxicity, oral): > 3200 mg/kg

O=C(c1ccccc1)C1CCN(CC2COc3ccccc3O2)CC1 (centres unmarked) [Exemple 9, Ghlorhydratede la 1-[(2,3-dihydro-4H-1,4-benzodioxin)-2-ylméthyl]-4-benzoyl pipéridine]
LD50 (Acute toxicity, oral): 2400 mg/kg

Cc1ccc(C(=O)C2CCN(CC3COc4ccccc4O3)CC2)cc1 (centres unmarked) [Exemple 10]
LD50 (Acute toxicity, oral): 1460 mg/kg

CCc1ccc(C(=O)C2CCN(CC3COc4ccccc4O3)CC2)cc1 (centres unmarked) [Exemple 11, Chlorhydratede la 1-[(2,3-dihydro-4H-1,4-benzodioxin)-2-ylméthyl]-4-(4-éthylbenzoyl) pipéridine]
LD50 (Acute toxicity, oral): 1200 mg/kg
